This experiment deals with T1, HDAC10 (Homo sapiens, UniProt Q969S8).
T1 construct: purchased Eurofins Pharma Discovery Services 2662
T1 sequence (Q969S8 1-669): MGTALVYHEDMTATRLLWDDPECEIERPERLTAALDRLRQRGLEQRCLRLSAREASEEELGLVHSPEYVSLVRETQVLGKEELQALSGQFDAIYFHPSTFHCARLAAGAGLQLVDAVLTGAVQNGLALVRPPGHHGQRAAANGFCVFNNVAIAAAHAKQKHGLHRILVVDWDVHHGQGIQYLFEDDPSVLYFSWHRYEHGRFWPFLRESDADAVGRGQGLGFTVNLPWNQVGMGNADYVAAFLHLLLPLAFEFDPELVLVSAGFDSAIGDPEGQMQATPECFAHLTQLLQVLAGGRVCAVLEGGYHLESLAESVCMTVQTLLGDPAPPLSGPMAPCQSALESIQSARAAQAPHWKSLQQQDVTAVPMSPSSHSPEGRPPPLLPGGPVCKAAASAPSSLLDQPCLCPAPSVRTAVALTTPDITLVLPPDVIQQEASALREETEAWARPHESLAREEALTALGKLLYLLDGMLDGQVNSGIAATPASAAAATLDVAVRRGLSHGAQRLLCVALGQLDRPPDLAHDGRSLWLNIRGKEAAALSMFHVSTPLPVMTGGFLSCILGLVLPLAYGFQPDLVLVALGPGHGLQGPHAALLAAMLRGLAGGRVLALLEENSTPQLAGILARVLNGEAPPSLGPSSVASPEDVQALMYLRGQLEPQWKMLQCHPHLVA
As to the kind of experiment: HDAC enzymatic activity (Eurofins). It counts as biochemical.

As a reminder, the IC50 is the concentration at which inhibition is half-maximal. A high value points to weaker potency.

Consider `O=C(CCCCCCNC(=O)c1cnc(N(c2ccccc2)c2ccccc2)nc1)NO` [Ricolinostat], for which 901 nM corresponded to half-maximal inhibition (IC50).

The values above are taken from paper PMC9555642 (PLoS ONE, 2022).
